From publication PMC12752627, “Discovery of a Potent and Selective TEAD Degrader with Durable Degradation Activity” (Advanced Science, 2025)

Tests used:
TEAD1 [1] = target: TEAD1 (Homo sapiens, UniProt P28347); experiment: Immunoblot in wild-type / CRBN-knockout HEK293T cells and rescue experiment; type: cell-based; parameters: endogenous in cells; host or cells: HEK293T wild-type and CRBN-knockout; settings: HEK293T cells, 1 h pretreatment
Experimental: (§1) Immunoblotting was carried out as previously described.^[ [29] ^] Cells were seeded in 6‐well plates (Yeasen, #84011ES50) at a density of 1 million cells per well. The following day, cells were treated with compounds at the required concentrations, with the DMSO concentration kept below 0.4‰ to prevent toxic effects on the cells. The collected cell pellets were washed three times with PBS (Meilunbio, #MA0015) and resuspended in 120 µL of RIPA lysis buffer (Meilunbio, #MA0151) containing 1% protease inhibitor (Meilunbio, #MB2678‐2). The cells were then sonicated on ice and centrifuged at 12 000 rpm for 15 min at 4 °C to remove cellular debris. Protein concentrations were determined using the BCA Protein Quantification Kit (Meilunbio, #MA0082‐1). The protein samples were normalized, boiled at 99 °C for 10 min, and then subjected to electrophoresis on a 10% SDS‐PAGE gel. The separated protein bands were transferred to nitrocellulose membranes, blocked with TBST containing 5% BSA, and incubated with the indicated primary antibodies. Finally, the blots were imaged using an Amersham Typhoon NIR imager.

CRBN-DDB1 = CRBN-DDB1 (Homo sapiens, UniProt Q96SW2); experiment: CRBN binding assay, biochemical (HTRF); settings: recombinant CRBN-DDB1, 1 h, read-out: Biochemical CRBN Binary Binding IC50 (nM ± SD)
Chain of CRBN-DDB1 (Q96SW2 whole entry): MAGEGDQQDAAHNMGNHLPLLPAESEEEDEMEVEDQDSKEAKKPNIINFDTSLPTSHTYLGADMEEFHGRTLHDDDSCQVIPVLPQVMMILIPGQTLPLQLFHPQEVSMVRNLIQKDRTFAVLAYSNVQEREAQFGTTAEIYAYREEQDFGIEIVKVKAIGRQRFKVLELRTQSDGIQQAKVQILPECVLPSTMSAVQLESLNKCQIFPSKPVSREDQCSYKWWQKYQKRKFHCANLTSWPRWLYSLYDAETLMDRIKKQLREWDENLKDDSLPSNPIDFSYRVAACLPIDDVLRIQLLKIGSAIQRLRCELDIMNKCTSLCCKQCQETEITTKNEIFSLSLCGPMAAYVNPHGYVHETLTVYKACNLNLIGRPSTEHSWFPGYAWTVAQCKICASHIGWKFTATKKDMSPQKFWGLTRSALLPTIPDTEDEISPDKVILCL
Experimental: Next, 400 nL of compound solution (initial concentration 10 µM, followed by a three‐fold gradient dilution) was dispensed into the wells using the positive‐pressure‐based I‐DOT dispenser. After 1 h of incubation at room temperature, the HTRF signal was measured using an Envision plate reader (Revvity). Finally, the data were analyzed using non‐linear regression curves in GraphPad Prism 9.5 software.

CRBN = target: T1, CRBN (Homo sapiens, UniProt Q96SW2); experiment: Intracellular CRBN binding in NanoLuc-CRBN-overexpressing HEK293T cells; type: cell-based; settings: read-out: Cellular CRBN Binding IC50 (nM ± SD)
T1 construct: expressed in transfected cells; host or cells: HEK293T
T1 sequence (Q96SW2 whole entry): as above
Experimental: NanoLuc‐CRBN‐overexpressing HEK293T were seeded in 96‐well plates at a density of 2000 per well. The following day, compounds was added to the plate starting from 10 µM for a 3‐fold gradient dilution and incubated for 2 h. […] Finally, the signal was measured using an Envision plate reader (Revvity) and the data were analyzed using the GraphPad Prism 9.5 software.

TEAD1 [2] = target: T2, TEAD1 (Homo sapiens, UniProt P28347+Q96SW2); experiment: Immunoblot of TEAD1 degradation in TEAD1-mNeonGreen fusion NCI-H1299 cells; type: cell-based; settings: 10 nM, 6 h, TEAD1-mNeonGreen NCI-H1299 cells
T2 construct: endogenous in cells; host or cells: NCI-H1299 (TEAD1-mNeonGreen knock-in)
T2 sequence (P28347 whole entry, the tested form may be a part): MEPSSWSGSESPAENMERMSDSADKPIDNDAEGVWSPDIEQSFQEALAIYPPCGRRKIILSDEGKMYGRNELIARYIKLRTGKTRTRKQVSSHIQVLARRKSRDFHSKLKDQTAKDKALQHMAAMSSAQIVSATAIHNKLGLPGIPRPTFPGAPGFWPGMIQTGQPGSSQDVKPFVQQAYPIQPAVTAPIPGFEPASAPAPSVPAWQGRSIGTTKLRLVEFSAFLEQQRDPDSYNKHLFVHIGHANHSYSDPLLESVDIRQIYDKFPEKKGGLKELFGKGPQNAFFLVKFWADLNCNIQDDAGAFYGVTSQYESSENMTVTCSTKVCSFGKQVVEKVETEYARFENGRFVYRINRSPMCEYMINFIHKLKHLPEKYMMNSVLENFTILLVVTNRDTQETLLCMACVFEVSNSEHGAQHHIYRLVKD
T2 sequence (Q96SW2 whole entry, the tested form may be a part): as the sequence (Q96SW2 whole entry) above
T2 sequence (Q16531 2-1140 partner limits assumed): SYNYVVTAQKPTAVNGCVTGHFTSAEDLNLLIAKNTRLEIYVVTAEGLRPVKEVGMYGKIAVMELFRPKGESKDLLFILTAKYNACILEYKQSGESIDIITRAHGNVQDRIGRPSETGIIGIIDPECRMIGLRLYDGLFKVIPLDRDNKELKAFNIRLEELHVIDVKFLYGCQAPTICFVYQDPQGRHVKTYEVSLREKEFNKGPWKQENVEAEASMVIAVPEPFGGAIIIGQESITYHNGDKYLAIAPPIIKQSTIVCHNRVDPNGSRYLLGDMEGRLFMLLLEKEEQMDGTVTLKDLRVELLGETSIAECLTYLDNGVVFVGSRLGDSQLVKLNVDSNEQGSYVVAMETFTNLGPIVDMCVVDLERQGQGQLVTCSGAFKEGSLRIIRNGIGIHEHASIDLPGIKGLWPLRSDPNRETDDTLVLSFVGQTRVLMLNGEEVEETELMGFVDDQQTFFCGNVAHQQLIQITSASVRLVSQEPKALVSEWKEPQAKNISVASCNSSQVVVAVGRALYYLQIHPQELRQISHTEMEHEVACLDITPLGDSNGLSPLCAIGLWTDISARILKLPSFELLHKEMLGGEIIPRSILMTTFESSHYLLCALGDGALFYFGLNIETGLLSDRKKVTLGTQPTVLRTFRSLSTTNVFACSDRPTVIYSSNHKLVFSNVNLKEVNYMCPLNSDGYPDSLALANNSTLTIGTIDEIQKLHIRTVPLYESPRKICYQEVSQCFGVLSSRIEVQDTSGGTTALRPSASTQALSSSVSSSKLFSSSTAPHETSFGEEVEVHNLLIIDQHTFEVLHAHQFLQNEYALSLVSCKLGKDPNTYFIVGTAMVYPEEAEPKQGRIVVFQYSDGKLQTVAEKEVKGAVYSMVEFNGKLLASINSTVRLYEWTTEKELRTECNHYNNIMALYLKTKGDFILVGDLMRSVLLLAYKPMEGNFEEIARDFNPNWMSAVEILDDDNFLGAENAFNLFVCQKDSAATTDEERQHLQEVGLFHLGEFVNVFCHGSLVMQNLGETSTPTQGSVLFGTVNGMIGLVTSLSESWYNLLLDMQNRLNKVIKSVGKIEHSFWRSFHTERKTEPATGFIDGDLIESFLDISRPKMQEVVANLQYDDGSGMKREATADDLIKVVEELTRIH
Experimental: as §1

A172 cells = experiment: Cell viability assay (CTG, 72 h) A172; type: cell-based; settings: 3-day compound treatment
Experimental: (§2) Cells were seeded at a density of 1000 cells per well in 96‐well flat‐bottomed cell culture plates and cultured overnight at 37 °C with 5% CO2 to allow for cell attachment. The following day, different concentrations of compounds were added using an I‐DOT dispenser. After 72 h, 25 µL of CellTiter‐Meiluncell Luminescent Cell Viability Reagent (Meilunbio, #PWL111‐2) was added and incubated for 15 min at room temperature. Luminescence signals were then measured using an Envision plate reader (Revvity). Data were analyzed using GraphPad Prism 9.5 software.^[ [30] ^]

HOS cells = experiment: Cell viability assay (CTG, 72 h) HOS; type: cell-based; settings: 3-day compound treatment
Experimental: as §2

867 cancer cell lines = experiment: PRISM assay (barcoded cell line screening, 5 days); type: cell-based;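 also: top test concentration 10 mM in eight-point dilution series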
Experimental: The principle of the PRISM assay has been described elsewhere and was conducted as previously outlined by the PRISM team at the Broad Institute.^[ [14], [31] ^] In PRISM (MTS027) experiments, KG‐FP‐003 was tested across 867 different cancer cell lines. Cells were treated with eight concentration gradients, ranging from 4.6 nM to […], in triplicate dilutions over a period of five days. Each plate was treated with 20 µM bortezomib as a positive control and DMSO as a negative control. Three replicate experiments were performed for each compound. The resulting data were analyzed using GraphPad PRISM 9.5.

KLE cells = experiment: Cell viability assay (CTG, 72 h) KLE; type: cell-based; settings: 3-day compound treatment
Experimental: as §2

ES2 cells = experiment: Cell viability assay (CTG, 72 h) ES2; type: cell-based; settings: 3-day compound treatment
Experimental: as §2

Chain of TEAD1 (Homo sapiens, UniProt P28347) (P28347 whole entry): as the sequence (P28347 whole entry, the tested form may be a part) above

SMILES | Rescue: effect of pretreatment on KG-FP-003-mediated TEAD1 degradation (TEAD1 [1]) | IC50 (CRBN-DDB1) | IC50 (CRBN) | further results
CC(C)C[C@H](NC(=O)[C@H](Cc1ccccc1)NC(=O)c1cnccn1)B(O)O [bortezomib] | effectively blocked |  |  | 
Nc1cccc2c1CN(C1CCC(=O)NC1=O)C2=O (stereo not drawn) [Lenalidomide, lenalidomide] | effectively blocked |  |  | 
C=C(F)C(=O)N1C[C@@H](Nc2ncccn2)[C@H](OCc2ccc(C(F)(F)F)cc2)C1 [MYF-03-176, reference compound] |  |  |  | IC50 (A172 cells): > 3 µM; IC50 (HOS cells): 0.922 ± 0.404 µM; PRISM AUC (867 cancer cell lines; Cell line: A172, 5 days): 0.59; PRISM AUC (867 cancer cell lines; Cell line: ES2, 5 days): 1.00; PRISM AUC (867 cancer cell lines; Cell line: HOS, 5 days): 0.90; PRISM AUC (867 cancer cell lines; Cell line: KLE, 5 days): 1.00; IC50 (KLE cells): 1.41 ± 0.479 µM; IC50 (ES2 cells): > 2 µM

More lines, main results first:

Rescue: effect of pretreatment on KG-FP-003-mediated TEAD1 degradation (TEAD1 [1]) | IC50 (CRBN-DDB1) | IC50 (CRBN) | SMILES | further results
 | 474 ± 14 nM | 1700 ± 384 nM | CNC(=O)c1cc2c(c(F)c1-c1c(Cl)c(F)cc3c1C[C@@](CN[C@H]1CC[C@H](C(=O)NCCCCC(=O)Nc4ccc(C)c(N5CCC(=O)NC5=O)c4)CC1)(c1ccccc1)O3)[C@@H](O)[C@@H](C)C2 [KG-FP-010] | 
effectively blocked |  |  | NS(=O)(=O)OC[C@@H]1C[C@@H](n2ccc3c(N[C@H]4CCc5ccccc54)ncnc32)C[C@@H]1O [MLN4924] | 
 | 152 ± 12 nM | 1380 ± 794 nM | CNC(=O)c1cc2c(c(F)c1-c1c(Cl)c(F)cc3c1C[C@@](CN[C@H]1CC[C@H](C(=O)N4CCC(CC5CCN(C(=O)COc6ccc7c(c6)C(=O)N(C6CCC(=O)NC6=O)C7=O)CC5)CC4)CC1)(c1ccccc1)O3)[C@@H](O)[C@@H](C)C2 (stereo partly drawn) [KG-FP-009] | Target degradation by immunoblot (TEAD1 [2]): significant target degradation
 | 126 ± 47 nM | 426 ± 176 nM | CNC(=O)c1cc2c(c(F)c1-c1c(Cl)c(F)cc3c1C[C@@](CNC(=O)CCCCC(=O)Nc1ccc4c(c1)C(=O)N(C1CCC(=O)NC1=O)C4=O)(c1ccccc1)O3)[C@@H](O)[C@@H](C)C2 (stereo partly drawn) [KG-FP-008] | 
